Source: the NIST ThermoML archive (doi:10.1021/je900596d)

Settings: Fluid (supercritical or subcritical phases), Vibrating tube method

FC(F)=C(F)C(F)(F)F [hexafluoropropene]
mass density [kg/m3]
Settings	343.26 K	348.12 K
3.1 kPa	–	0.11
3.7 kPa	–	0.12
4.8 kPa	–	0.23
5.4 kPa	–	0.18
6.4 kPa	–	0.27
7.4 kPa	–	0.23
8.3 kPa	–	0.31
8.9 kPa	–	0.35
9.9 kPa	–	0.43
11.5 kPa	–	0.57
15.2 kPa	–	0.72
17 kPa	–	0.83
18.8 kPa	–	0.9
22.4 kPa	–	1.11
24.2 kPa	–	1.25
27.7 kPa	–	1.44
29.5 kPa	–	1.44
31.2 kPa	–	1.52
34.9 kPa	–	1.74
36.7 kPa	–	1.87
38.3 kPa	–	1.89
41 kPa	–	2.08
43.9 kPa	–	2.27
46.5 kPa	–	2.39
49.3 kPa	–	2.49
55.8 kPa	–	2.86
59.3 kPa	–	3.01
62.6 kPa	–	3.24
65.9 kPa	–	3.31
72.5 kPa	–	3.77
75.7 kPa	–	3.95
78.9 kPa	–	4.06
82.3 kPa	–	4.24
89 kPa	–	4.57
92.4 kPa	–	4.78
95.9 kPa	–	4.89
99.3 kPa	–	5.1
102.8 kPa	–	5.38
108.9 kPa	–	5.66
121.1 kPa	–	6.31
127.3 kPa	–	6.62
139.4 kPa	–	7.29
145.5 kPa	–	7.59
151.6 kPa	–	7.92
157.7 kPa	–	8.3
168.6 kPa	–	8.79
172.3 kPa	–	9.11
176 kPa	–	9.23
186.9 kPa	–	9.89
190.6 kPa	–	10.07
194.2 kPa	–	10.28
201.5 kPa	–	10.61
208.9 kPa	–	10.99
216.2 kPa	–	11.48
230.6 kPa	–	12.26
237.9 kPa	–	12.55
245.2 kPa	–	13.05
252.4 kPa	–	13.5
266.8 kPa	–	14.29
274 kPa	–	14.64
281 kPa	–	15
295.2 kPa	–	15.84
303.3 kPa	–	16.23
310.5 kPa	–	16.69
317.5 kPa	–	17.06
324.5 kPa	–	17.51
331.5 kPa	–	17.9
338.4 kPa	–	18.25
352.2 kPa	–	19.05
359.1 kPa	–	19.45
366 kPa	–	19.85
379.7 kPa	–	20.59
386.5 kPa	–	20.98
393.2 kPa	–	21.4
399.9 kPa	–	21.73
413.4 kPa	–	22.49
420.1 kPa	–	22.92
426.9 kPa	–	23.28
433.5 kPa	–	23.69
443.2 kPa	–	24.38
470.9 kPa	–	25.92
484.7 kPa	–	26.77
498.3 kPa	–	27.51
515 kPa	–	28.53
528 kPa	–	29.29
541 kPa	–	30.15
566.4 kPa	–	31.68
575.8 kPa	33.42	–
579.2 kPa	–	32.43
590.5 kPa	34.28	–
591.2 kPa	–	33.18
603.3 kPa	–	33.86
604.4 kPa	35.15	–
617.9 kPa	35.97	–
631.9 kPa	36.94	–
638.4 kPa	–	36.05
646.4 kPa	37.76	–
655.4 kPa	–	37.08
660.3 kPa	38.68	–
672.1 kPa	–	38.15
674.2 kPa	39.57	–
688.2 kPa	40.47	–
688.5 kPa	–	39.21
701.9 kPa	41.42	–
704.5 kPa	–	40.22
715.6 kPa	42.26	–
720.3 kPa	–	41.24
729.6 kPa	43.14	–
735.8 kPa	–	42.16
743.3 kPa	44.1	–
756.9 kPa	44.99	–
765.5 kPa	–	44.05
770.5 kPa	45.84	–
783.7 kPa	46.78	–
794.2 kPa	–	45.95
797.6 kPa	47.61	–
808 kPa	–	46.91
810.7 kPa	48.57	–
823.9 kPa	49.41	–
827.5 kPa	–	48.2
844.7 kPa	–	49.34
850.2 kPa	51.23	–
863 kPa	52.13	–
863.4 kPa	–	50.7
876.3 kPa	53.04	–
889.1 kPa	53.92	–
890.4 kPa	–	52.34
902.2 kPa	54.71	–
902.7 kPa	–	53.25
914.9 kPa	55.73	–
915.6 kPa	–	54.2
928.7 kPa	56.6	55.05
941.5 kPa	57.53	–
945.4 kPa	–	56.14
954 kPa	58.46	–
967.8 kPa	59.43	–
972.6 kPa	–	58.01
981 kPa	60.4	–
985.8 kPa	–	58.92
994.4 kPa	61.4	–
1005.6 kPa	–	60.36
1008.2 kPa	62.31	–
1020.2 kPa	63.29	–
1023.4 kPa	–	61.55
1034.9 kPa	64.41	–
1040.8 kPa	–	62.84
1046.9 kPa	65.28	–
1057.8 kPa	–	64.05
1060.3 kPa	66.22	–
1073.4 kPa	67.25	–
1074 kPa	–	65.2
1087.5 kPa	68.21	–
1089.6 kPa	–	66.39
1100.8 kPa	69.23	–
1108 kPa	–	67.73
1115.6 kPa	70.43	–
1129.3 kPa	71.49	–
1138.6 kPa	–	69.96
1141.9 kPa	72.46	–
1150.7 kPa	–	70.83
1155.2 kPa	73.52	–
1168.1 kPa	–	72.19
1170.3 kPa	74.72	–
1184.8 kPa	–	73.38
1185.3 kPa	75.94	–
1200.7 kPa	77.06	–
1201.8 kPa	–	74.83
1215.9 kPa	78.32	–
1219.5 kPa	–	76.17
1231.1 kPa	79.48	–
1231.5 kPa	–	77.05
1246.2 kPa	80.8	–
1248.8 kPa	–	78.38
1260.9 kPa	82.02	–
1265.1 kPa	–	79.72
1275.9 kPa	83.2	–
1280.3 kPa	–	80.92
1290.3 kPa	84.46	–
1297.6 kPa	–	82.21
1305.2 kPa	85.7	–
1313.7 kPa	–	83.6
1318.4 kPa	86.81	–
1330.4 kPa	–	84.96
1332.6 kPa	88.06	–
1346.3 kPa	–	86.2
1347.2 kPa	89.34	–
1361.6 kPa	90.6	–
1362.7 kPa	–	87.68
1375.5 kPa	91.86	–
1378.7 kPa	–	88.93
1389.9 kPa	93.09	–
1395.3 kPa	–	90.32
1403.7 kPa	94.34	–
1410.5 kPa	–	91.58
1417.7 kPa	95.63	–
1426.3 kPa	–	92.94
1431.1 kPa	96.88	–
1442.6 kPa	–	94.4
1445 kPa	98.11	–
1458.7 kPa	99.32	–
1460.3 kPa	–	95.93
1471.8 kPa	100.55	–
1473.3 kPa	–	97.06
1485.2 kPa	101.78	–
1487.3 kPa	–	98.32
1498.3 kPa	103.12	–
1511.1 kPa	104.29	–
1511.6 kPa	–	100.57
1540.1 kPa	–	103.11
1562.1 kPa	109.24	–
1566 kPa	–	105.5
1588.6 kPa	111.94	–
1592.2 kPa	–	107.78
1614.7 kPa	114.55	–
1616.1 kPa	–	110.1
1639.3 kPa	–	112.32
1641.2 kPa	117.35	–
1669.2 kPa	120.33	–
1683.8 kPa	–	116.62
1691 kPa	122.68	–
1708.4 kPa	–	119.29
1719.3 kPa	125.81	–
1732.6 kPa	–	121.75
1745.8 kPa	128.82	–
1756.5 kPa	–	124.29
1773.3 kPa	132.05	–
1800.9 kPa	135.31	–
1827.4 kPa	138.58	–
1854.7 kPa	141.97	–
1880.9 kPa	145.46	–
1908.3 kPa	149.04	–
1933.9 kPa	152.57	–
1960.3 kPa	156.37	–
1986.1 kPa	160.18	–
2014.5 kPa	164.44	–
2041.7 kPa	168.76	–
2069.4 kPa	173.21	–
2096.3 kPa	177.82	–
2121.6 kPa	182.61	–
2139 kPa	185.89	–
2156.2 kPa	189.13	–
2172.4 kPa	192.4	–
2188.6 kPa	195.87	–
2204.8 kPa	199.3	–
2221.6 kPa	203.18	–
2237.7 kPa	208.04	–
2240 kPa	209.71	–
2240.5 kPa	210.31	–
2241 kPa	210.66	–
2241.7 kPa	211.34	–
2242.3 kPa	212.06	–
2242.9 kPa	213.01	–
2243.5 kPa	214.62	–
2243.9 kPa	215.07	–
2244.6 kPa	216.87	–
2245.3 kPa	218.74	–
2245.7 kPa	219.44	–
2246.2 kPa	220.03	–
2246.7 kPa	220.73	–
2247.1 kPa	221.76	–
2247.5 kPa	223.54	–
2248 kPa	224.32	–
2248.4 kPa	225.47	–
2248.8 kPa	227.07	–
2249.3 kPa	230.72	–
2249.7 kPa	239.12	–
